Several values for one entry are separate records, joined by “and”; a condition that tells them apart may be missing. Identical values can stand only once.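 How tested: cells in 96-well plates exposed to compound for 48 hours at five concentrations. The concentration for 50% growth inhibition is given as GI50. The concentration for full growth arrest is given as TGI.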
System: HCC-2998 colon
Assay: inhibition of tumour cell growth, NCI panel, 48 h

SMILES | GI50 | TGI
Cc1ccc(Nc2nc(N)c(C(=O)c3ccc(C#N)cc3)s2)cc1 | 1.59 µM | > 53.9 µM
O=C1c2ccn(CCCCNC(CO)(CO)CO)c2C(=O)c2c1c(O)c1ccccc1c2O | 0.17 µM | 0.515 µM
COC(=O)/C=C/C1C(C(=O)OC)C2(C(=O)OC)CCC1(C(=O)OC)N2 (configuration not stated) |  | > 100 µM
CC(C)(C)N1CC2(CCCCC2)C1=O |  | > 100 µM
COc1ccc(-c2cc(-c3cccn3C)c(C#N)c(N)n2)cc1OC | > 100 µM | > 100 µM
COc1ccc(CNc2c3ccccc3nc3ccccc23)cc1OC | 2.28 µM | 8.76 µM
O=C(Nc1ccc(Cl)cc1F)c1cc(Br)ccc1O | 2.73 µM | 13.3 µM
COc1ccc(-n2cc(-c3ccc(Cl)c(Cl)c3)nc2SCc2cccc(C#N)c2)cc1 | 79.1 µM | > 100 µM
N#CC(/C(=N/NC(=O)C(=O)NN)C(=O)NC12CC3CC(CC(C3)C1)C2)c1ccccc1 (configuration not stated) |  | > 100 µM
Nc1c(C(=O)N/N=C/c2ccc(-c3ccc(Cl)cc3)o2)cnn1-c1ccnc2c(C(F)(F)F)cccc12 | > 100 µM | > 100 µM
Fc1ccc(Nc2cc(-n3nnc4ccccc43)nc3ccccc23)cc1 | > 100 µM | > 100 µM
NC(=O)C(=CNc1nc(-c2ccc(Cl)c(Cl)c2)cs1)C(N)=O | > 100 µM | > 100 µM
NC(N)=N/N=C/c1cc(Cl)cc(Cl)c1O |  | 32 µM
O=C(Nc1cccc(Cl)c1)c1cc2ccccc2cc1O | 3.9 µM and 3.39 µM | > 100 µM
CCCCCCCCCc1cc(=O)c2c(O)cccc2o1 |  | > 100 µM

System: A549 NSCLC
Assay: inhibition of tumour cell growth, NCI panel, 48 h

SMILES | GI50 | TGI
O=C1/C(=C\c2cccn2Cc2ccccc2)c2ccccc2N1c1c(Cl)cccc1Cl | 8.32 µM | > 100 µM
CCOC(=O)c1[nH]c(COC(C)=O)c(CCCOC(C)=O)c1CCCOC(C)=O |  | > 100 µM
Cc1sc2nc(NCCc3c[nH]c4ccc(Cl)cc34)[nH]c(=O)c2c1C | 2.13 µM | 5.09 µM
COc1ccc(/C=c2/sc3n(c2=O)C(c2ccc(OC)c(OC)c2)C2=C(N=3)c3cc(F)ccc3OC2)cc1 (configuration not stated) | 23.6 µM | > 82 µM
O=C(Nc1ccc([N+](=O)[O-])cc1)C1C(=O)C(=O)N(c2ccc([N+](=O)[O-])cc2)C1=O (configuration not stated) |  | > 100 µM
O=C(O)c1cc(O)c2c(c1)C(C1c3cc(C(=O)O)cc(O)c3C(=O)c3c(OC4OC(CO)C(O)C(O)C4O)cccc31)c1cccc(OC3OC(CO)C(O)C(O)C3O)c1C2=O (configuration not stated) | > 100 µM | > 100 µM
O=C(CN(C1CCCCC1)C1CCCCC1)Nc1ccc(S(=O)(=O)c2ccc(NC(=O)CN(C3CCCCC3)C3CCCCC3)cc2)cc1 | 1.33 µM | 3.26 µM
O=C(/C=C/c1c(O)ccc2ccccc12)c1ccc2ccccc2c1 |  | > 100 µM
O=c1[nH]c2cc(Cl)ccc2n1C1CCN(CCCC(c2ccc(F)cc2)c2ccc(F)cc2)CC1 | 1.65 µM | 3.39 µM
CCOC(=O)C1N(S(=O)(=O)c2ccc(C)cc2)CCC12C(c1ccc(OC)cc1)NC1CCCCC12 (configuration not stated) |  | > 100 µM
Nc1nc(Br)nc2c1ncn2C1CC(O)C(CO)O1 (configuration not stated) | 5.34 µM | > 100 µM
Nc1nc(Nc2ccccc2)c2ncn(Cc3cc4c(cc3Br)OCO4)c2n1 | 0.0491 µM | 11.5 µM
CCOC(=O)N1CCN(C(=O)c2ccc(C(F)(F)F)nc2Nc2cc(Cl)ccc2C)CC1 | 14.8 µM | > 100 µM
Cc1ccc(Nc2nc(N)c(C(=O)c3ccc(C#N)cc3)s2)cc1 | 0.739 µM | > 76.6 µM
O=C1c2ccn(CCCCNC(CO)(CO)CO)c2C(=O)c2c1c(O)c1ccccc1c2O | 1.86 µM | 3.96 µM
COC(=O)/C=C/C1C(C(=O)OC)C2(C(=O)OC)CCC1(C(=O)OC)N2 (configuration not stated) |  | > 100 µM
CC(C)(C)N1CC2(CCCCC2)C1=O |  | > 100 µM
COc1ccc(-c2cc(-c3cccn3C)c(C#N)c(N)n2)cc1OC | > 100 µM | > 100 µM
COc1ccc(CNc2c3ccccc3nc3ccccc23)cc1OC | 2.24 µM | 6.87 µM
O=C(Nc1ccc(Cl)cc1F)c1cc(Br)ccc1O | 1.42 µM | > 100 µM
COc1ccc(-n2cc(-c3ccc(Cl)c(Cl)c3)nc2SCc2cccc(C#N)c2)cc1 | 93.8 µM | > 100 µM
N#CC(/C(=N/NC(=O)C(=O)NN)C(=O)NC12CC3CC(CC(C3)C1)C2)c1ccccc1 (configuration not stated) |  | > 100 µM
Nc1c(C(=O)N/N=C/c2ccc(-c3ccc(Cl)cc3)o2)cnn1-c1ccnc2c(C(F)(F)F)cccc12 | 83.9 µM | > 100 µM
Fc1ccc(Nc2cc(-n3nnc4ccccc43)nc3ccccc23)cc1 | 64.4 µM | > 100 µM
NC(=O)C(=CNc1nc(-c2ccc(Cl)c(Cl)c2)cs1)C(N)=O | 85.7 µM | > 100 µM
NC(N)=N/N=C/c1cc(Cl)cc(Cl)c1O |  | > 100 µM
O=C(Nc1cccc(Cl)c1)c1cc2ccccc2cc1O | 3.63 µM and 3.31 µM | > 100 µM
CCCCCCCCCc1cc(=O)c2c(O)cccc2o1 |  | > 100 µM

System: SNB-19 CNS
Assay: inhibition of tumour cell growth, NCI panel, 48 h

SMILES | GI50 | TGI
O=C1/C(=C\c2cccn2Cc2ccccc2)c2ccccc2N1c1c(Cl)cccc1Cl | > 100 µM | > 100 µM
CCOC(=O)c1[nH]c(COC(C)=O)c(CCCOC(C)=O)c1CCCOC(C)=O |  | > 100 µM
Cc1sc2nc(NCCc3c[nH]c4ccc(Cl)cc34)[nH]c(=O)c2c1C | 3.54 µM | 13.2 µM
COc1ccc(/C=c2/sc3n(c2=O)C(c2ccc(OC)c(OC)c2)C2=C(N=3)c3cc(F)ccc3OC2)cc1 (configuration not stated) | > 53.2 µM | > 100 µM
O=C(Nc1ccc([N+](=O)[O-])cc1)C1C(=O)C(=O)N(c2ccc([N+](=O)[O-])cc2)C1=O (configuration not stated) |  | > 100 µM
O=C(O)c1cc(O)c2c(c1)C(C1c3cc(C(=O)O)cc(O)c3C(=O)c3c(OC4OC(CO)C(O)C(O)C4O)cccc31)c1cccc(OC3OC(CO)C(O)C(O)C3O)c1C2=O (configuration not stated) | > 100 µM | > 100 µM
O=C(CN(C1CCCCC1)C1CCCCC1)Nc1ccc(S(=O)(=O)c2ccc(NC(=O)CN(C3CCCCC3)C3CCCCC3)cc2)cc1 | 0.656 µM | 2.18 µM
O=C(/C=C/c1c(O)ccc2ccccc12)c1ccc2ccccc2c1 |  | > 100 µM
O=c1[nH]c2cc(Cl)ccc2n1C1CCN(CCCC(c2ccc(F)cc2)c2ccc(F)cc2)CC1 | 1.83 µM | 3.79 µM
CCOC(=O)C1N(S(=O)(=O)c2ccc(C)cc2)CCC12C(c1ccc(OC)cc1)NC1CCCCC12 (configuration not stated) |  | > 100 µM
Nc1nc(Br)nc2c1ncn2C1CC(O)C(CO)O1 (configuration not stated) |  | > 56.9 µM
Nc1nc(Nc2ccccc2)c2ncn(Cc3cc4c(cc3Br)OCO4)c2n1 | 0.0686 µM | 22.3 µM
CCOC(=O)N1CCN(C(=O)c2ccc(C(F)(F)F)nc2Nc2cc(Cl)ccc2C)CC1 | > 100 µM | > 100 µM
Cc1ccc(Nc2nc(N)c(C(=O)c3ccc(C#N)cc3)s2)cc1 | 0.509 µM | 53.5 µM
O=C1c2ccn(CCCCNC(CO)(CO)CO)c2C(=O)c2c1c(O)c1ccccc1c2O | 3.33 µM | 22.6 µM
COC(=O)/C=C/C1C(C(=O)OC)C2(C(=O)OC)CCC1(C(=O)OC)N2 (configuration not stated) |  | > 100 µM
CC(C)(C)N1CC2(CCCCC2)C1=O |  | > 100 µM
COc1ccc(-c2cc(-c3cccn3C)c(C#N)c(N)n2)cc1OC | > 100 µM | > 100 µM
COc1ccc(CNc2c3ccccc3nc3ccccc23)cc1OC | 3.3 µM | 17.2 µM
O=C(Nc1ccc(Cl)cc1F)c1cc(Br)ccc1O | 0.508 µM | > 100 µM
COc1ccc(-n2cc(-c3ccc(Cl)c(Cl)c3)nc2SCc2cccc(C#N)c2)cc1 | 29.2 µM | > 100 µM
N#CC(/C(=N/NC(=O)C(=O)NN)C(=O)NC12CC3CC(CC(C3)C1)C2)c1ccccc1 (configuration not stated) |  | > 100 µM
Nc1c(C(=O)N/N=C/c2ccc(-c3ccc(Cl)cc3)o2)cnn1-c1ccnc2c(C(F)(F)F)cccc12 | > 100 µM | > 100 µM
Fc1ccc(Nc2cc(-n3nnc4ccccc43)nc3ccccc23)cc1 |  | > 100 µM
NC(=O)C(=CNc1nc(-c2ccc(Cl)c(Cl)c2)cs1)C(N)=O | > 100 µM | > 100 µM
NC(N)=N/N=C/c1cc(Cl)cc(Cl)c1O |  | > 100 µM
O=C(Nc1cccc(Cl)c1)c1cc2ccccc2cc1O | 2.94 µM and 2.37 µM | > 100 µM
CCCCCCCCCc1cc(=O)c2c(O)cccc2o1 |  | > 100 µM
